Among the data in ChEMBL document CHEMBL1158995, “A novel perlactone from the Caribbean sponge Plakortis angulospiculatus” (J Nat Prod, 1991) are Activity values, retold here.

Calls of active or inactive are those of the source. The calls are words filed in the database; no cut-off is given here.

The test system of the experiment is Candida albicans. In words: Antimicrobial activity against Candida albicans ATCC 32354. The experiment is classed as functional, organism-based.

Take `CC1=C(O)C(C)(CCCCCC(C)CCCCc2ccc(O)cc2)OOC1=O` (stereo unspecified): the result was inactive.
